Blank lines part the entries; values can stand above or below the compound they belong to.
Experiments:
Format in all cases: physicochemical
[1] = Suspension of excess solid Compound I in solvent on a rotarmix, solid form determined by powder X-ray diffraction
Method: In the following examples are used excess of solid Compound I, i.e. compared to the solvent the amounts of solid Compound I is such that not all the solid material comes into solution. The amounts used varied between 25-50 mg solid Compound I and 2-5 ml solvent. In the present context by “solid Compound I” is meant amorphous Compound I or any of the crystalline forms of Compound I as indicated below. • (i) Excess of amorphous Compound I was added to methanol and the resulting suspension was stored on a rotarmix for 4 days at room temperature. […] After filtration the supernatant was left for evaporation of the solvent. […] Conclusion: […]

[2] = as above; conditions: 4 days, room temperature; for solid form after storage as suspension in acetonitrile (ACN): excess solid in ACN; for solid form after storage as suspension in methanol: excess solid in methanol
[3] = Light exposure of the solid compound in a Heraeus Suntest CPS+; conditions: solid compound exposed to light for 14 h at 650W
Method: Experiments were carried out in a Heraeus Suntest CPS+ for the crystalline forms alpha, beta and gamma where the solid compound was exposed to light for 14 h at 650W.

[4] = listed as crystalline alpha form of Compound I
[5] = listed as crystalline beta form of Compound I
[6] = listed as crystalline gamma form of Compound I

- solid form obtained on evaporation of the filtered supernatant ([1]; methanol suspension after 4 days, filtration, supernatant left for evaporation of the solvent): the alpha form
Compound: CCSCc1ccc2c(c1)c1c3c(c4c5cc(CSCC)ccc5n5c4c1n2[C@H]1C[C@](O)(C(=O)OC)[C@]5(C)O1)CNC3=O
- solid form after storage as suspension in methanol ([1]; excess solid in methanol, rotarmix, 4 days, room temperature, powder X-ray diffraction): the major part of the solid was the gamma form

- solid form after storage as suspension in acetonitrile (ACN) [2, 4]: the gamma form
- solid form after storage as suspension in methanol [2, 4]: still the alpha form
Compound: CCSCc1ccc2c(c1)c1c3c(c4c5cc(CSCC)ccc5n5c4c1n2[C@H]1C[C@](O)(C(=O)OC)[C@]5(C)O1)CNC3=O [alpha]

- degradation after light treatment [3]: ~60%
- solid form after storage as suspension in acetonitrile (ACN) ([2]; listed as amorphous Compound I): the gamma form
- solid form after storage as suspension in methanol ([2]; listed as amorphous Compound I): the alpha form
Compound: CCSCc1ccc2c(c1)c1c3c(c4c5cc(CSCC)ccc5n5c4c1n2[C@H]1C[C@](O)(C(=O)OC)[C@]5(C)O1)CNC3=O [amorphous substance]

- solid form after storage as suspension in acetonitrile (ACN) [2, 5]: the gamma form
- solid form after storage as suspension in methanol [2, 5]: the alpha form
Compound: CCSCc1ccc2c(c1)c1c3c(c4c5cc(CSCC)ccc5n5c4c1n2[C@H]1C[C@](O)(C(=O)OC)[C@]5(C)O1)CNC3=O [beta]

- solid form after storage as suspension in acetonitrile (ACN) [2, 6]: still the gamma form
- solid form after storage as suspension in methanol [2, 6]: still the gamma form
Compound: CCSCc1ccc2c(c1)c1c3c(c4c5cc(CSCC)ccc5n5c4c1n2[C@H]1C[C@](O)(C(=O)OC)[C@]5(C)O1)CNC3=O [gamma]

Source: patent US8076320B2, “Crystalline forms of a pharmaceutical compound” (Cephalon, Inc., priority 2004, dated 2011)
